One assay has as its target Protein Wnt-3a (Mus musculus, UniProt P27467). Briefly: SAR analysis of small molecule antagonists of Gli-SUFU in a Wnt3a luminescent reporter assay. Format: functional. A general note: A reporter such as luciferase makes a cellular process visible.
The target in assay [1] is Luciferin 4-monooxygenase (Photinus pyralis, UniProt P08659). The experiment in a line: Counter Screen for Luciferase-based Assay Positives. [Related pubchem assays: 620, 618, 411 ]. A general note: Counterscreens check selectivity or assay interference.
Another assay has as its system HT-1080. The experiment in a line: cytotoxicity in HT1080 fibrosarcoma cells, cell-based, fluorescence readout (AID 620). Format: functional. The settings on record: Homo sapiens.
Assay [2] in a line: human group III sPLA2 inhibitors, dose response, biochemical, QFRET, IC50 (AID 743457).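 Also: green fluorescence rise as the enzyme cleaves BODIPY PC-A2 in liposomes; potency for inhibition of the enzyme.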
Another assay has as its target Paired box protein Pax-8 (Homo sapiens, UniProt Q06710). The experiment in a line: inhibitors of PAX8-driven TPO luciferase reporter, dose response, RMG-I cells, cherry-pick (AID 687027).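 Also: luciferase reporter driven by Pax8 target thyroperoxidase promoter measured by SteadyGlo luminescence.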 Format: functional, cell-based.
Assay [3] is described as follows: inhibitors of PGC1a acetylation in cells, dose response, cell-based, cherry-picked samples (AID 720514).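 Also: potency may reflect raised or lowered acetylation signal.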 Format: functional.
Assay [4] is described as follows: inhibitors of CMV-promoter luciferase reporter, dose response, counter-screen for Pax8 inhibitor project, cell-based, HEK293, luminescence, dry powder (AID 743020). Format: functional.
Assay [5] can be described thus: cytotoxicity in OVCAR8 ovarian cancer cells, dose response, PAX8 project, cell-based, plate reader, dry powder samples (AID 743197). Format: functional. The settings on record: OVCAR-8.
Assay [6] addresses Beta-lactamase (Salmonella choleraesuis (strain SC-B67), UniProt Q5J463). The experiment in a line: Epi-absorbance-based counterscreen for selective VIM-2 inhibitors: dose response biochemical high throughput screening assay to identify inhibitors of TEM-1 serine-beta-lactamase.
Assay [7] deals with T1, Beta-lactamase (Pseudomonas aeruginosa, UniProt Q79MP6). Briefly: IMP-1 metallo-beta-lactamase inhibitors, dose response, selectivity assay for VIM-2 inhibitor project, biochemical, epi-absorbance (AID 1920).
The target in assay [8] is T1, Beta-lactamase. The experiment in a line: […] counterscreen for selective VIM-2 inhibitors: dose response biochemical high throughput screening assay to identify inhibitors of IMP-1 metallo-beta-lactamase.
The target in assay [9] is T2, Heat shock factor protein 1 (Mus musculus, UniProt P38532).
T2 sequence (P38532 whole entry): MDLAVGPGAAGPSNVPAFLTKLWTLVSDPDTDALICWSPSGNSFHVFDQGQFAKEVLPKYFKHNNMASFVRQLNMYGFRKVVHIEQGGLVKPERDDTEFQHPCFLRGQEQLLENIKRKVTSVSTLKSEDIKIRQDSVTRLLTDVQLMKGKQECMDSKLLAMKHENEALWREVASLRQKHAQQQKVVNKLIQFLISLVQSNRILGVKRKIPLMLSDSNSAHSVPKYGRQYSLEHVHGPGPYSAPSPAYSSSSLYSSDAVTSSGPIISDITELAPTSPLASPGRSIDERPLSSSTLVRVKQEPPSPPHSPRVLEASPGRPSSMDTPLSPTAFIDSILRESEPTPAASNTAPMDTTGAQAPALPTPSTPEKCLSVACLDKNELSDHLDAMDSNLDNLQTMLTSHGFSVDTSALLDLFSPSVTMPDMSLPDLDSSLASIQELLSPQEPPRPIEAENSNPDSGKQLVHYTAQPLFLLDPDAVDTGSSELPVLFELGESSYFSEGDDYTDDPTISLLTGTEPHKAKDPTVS
Briefly: HSF1 potentiators in luciferase reporter cells, confirmation, cell-based, NIH3T3, luminescence, dose retest (AID 435004).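 Also: stress induced by proteasome inhibitor MG132 added 30 min after compound; luciferase reporter driven by HSF1 response element in NIH3T3 cells; actives raise luminescence as potentiators of the MG132 stress response.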 Format: functional.

Another assay concerns the target Albumin (Bos taurus, UniProt P02769). The experiment in a line: Counterscreen for inhibitors of T-cell receptor (TCR)-CD3 interaction: Fluorescence-based biochemical high throughput dose response assay to identify inhibitors of T-cell receptor (TCR)-CD3 interaction using a TAMRA-labeled BSA probe. It is filed as functional.
The target in assay [10] is T3, Fatty acid synthase (Homo sapiens, UniProt P49327). The experiment in a line: FAS thioesterase domain inhibitors, dose response, biochemical, endpoint fluorescence intensity, uHTS hits (AID 624327).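 Also: fluorescence from hydrolysis of an O-methyl fluorescein acyl ester substrate by the enzyme.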 Format: functional.
Assay [11] has as its target T3, Fatty acid synthase. Briefly: FAS thioesterase domain inhibitors, dose response, biochemical, kinetic fluorescence intensity (AID 624326).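 Also: rate of fluorescence rise from hydrolysis of a fluorogenic O-methyl fluorescein ester substrate.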 Format: functional.
For assay [12], the target named is SWI/SNF-related matrix-associated actin-dependent regulator of chromatin subfamily A member 2 (Homo sapiens, UniProt P51531). Briefly: Luminescence-based cell-based high throughput dose response assay to identify activators of the function of SWI/SNF related, matrix associated, actin dependent regulator of chromatin, subfamily a, member 2 (SMARCA2, BRM). Format: functional.

Assay [13] in a line: Counterscreen for activators of the function of SWI/SNF related, matrix associated, actin dependent regulator of chromatin, subfamily a, member 2 (SMARCA2, BRM): Luminescence-based cell-based high throughput dose response assay to identify non-selective compounds using the VP16 reporter assay. Format: functional.
Assay [14] in a line: inhibitors of HIV Env-driven cell fusion, dose response, cherry-pick (AID 652057). It is filed as functional, cell-based.
A short description of assay [15]: CEM21 lymphoblast cell cytotoxicity, dose response, cytotoxicity control for viral fusion inhibitor project, CellTiter-Glo luminescence, cherry-picked (AID 652042).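 Also: potency for signal decrease meaning cytotoxicity.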 Format: functional, cell-based. (In general: ATP-based viability assays read luminescence as a measure of living cells.)
The nature of assay [16]: ZM109 Env clade C HIV-1 fusion inhibitors, dose response, HeLa effector, CEM target cells, luciferase, cherry-pick (AID 652058). It is filed as functional, cell-based.
Assay [17] in a line: off-target signal loss in HeLa-CEM21 co-culture – HeLa F-luc CTL cells, cherry-picked, counter-screen for HIV-1 Env fusion inhibitor project, dose response (AID 652040).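 Also: potency for signal decrease marking cytotoxic or nonspecific inhibition.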 Format: functional, cell-based.
Assay [18] in a line: inhibitors of clade B AD8 Env fusion, dose response, cell-based, cherry-pick (AID 652062).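 Also: luciferase signal from cell-cell fusion driven by HIV-1 clade B AD8 Env; potency is for inhibitors of fusion seen as a drop in luminescence.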 It is filed as functional.
The next assay concerns the target Cytochrome P450 3A4 (Homo sapiens, UniProt P08684).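 Also: CYP3A4 tested as one member of a cytochrome P450 panel screen.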
Another assay concerns the target Large T antigen (Simian virus 40, UniProt P03070). It is filed as functional, Betapolyomavirus macacae.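 Also: Confirmatory-stage PubChem screen for compounds that inhibit SV40 T antigen.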
The target of assay [19] is T4, Histone-lysine N-methyltransferase NSD2 (Homo sapiens, UniProt O96028).
T4 sequence (O96028 whole entry): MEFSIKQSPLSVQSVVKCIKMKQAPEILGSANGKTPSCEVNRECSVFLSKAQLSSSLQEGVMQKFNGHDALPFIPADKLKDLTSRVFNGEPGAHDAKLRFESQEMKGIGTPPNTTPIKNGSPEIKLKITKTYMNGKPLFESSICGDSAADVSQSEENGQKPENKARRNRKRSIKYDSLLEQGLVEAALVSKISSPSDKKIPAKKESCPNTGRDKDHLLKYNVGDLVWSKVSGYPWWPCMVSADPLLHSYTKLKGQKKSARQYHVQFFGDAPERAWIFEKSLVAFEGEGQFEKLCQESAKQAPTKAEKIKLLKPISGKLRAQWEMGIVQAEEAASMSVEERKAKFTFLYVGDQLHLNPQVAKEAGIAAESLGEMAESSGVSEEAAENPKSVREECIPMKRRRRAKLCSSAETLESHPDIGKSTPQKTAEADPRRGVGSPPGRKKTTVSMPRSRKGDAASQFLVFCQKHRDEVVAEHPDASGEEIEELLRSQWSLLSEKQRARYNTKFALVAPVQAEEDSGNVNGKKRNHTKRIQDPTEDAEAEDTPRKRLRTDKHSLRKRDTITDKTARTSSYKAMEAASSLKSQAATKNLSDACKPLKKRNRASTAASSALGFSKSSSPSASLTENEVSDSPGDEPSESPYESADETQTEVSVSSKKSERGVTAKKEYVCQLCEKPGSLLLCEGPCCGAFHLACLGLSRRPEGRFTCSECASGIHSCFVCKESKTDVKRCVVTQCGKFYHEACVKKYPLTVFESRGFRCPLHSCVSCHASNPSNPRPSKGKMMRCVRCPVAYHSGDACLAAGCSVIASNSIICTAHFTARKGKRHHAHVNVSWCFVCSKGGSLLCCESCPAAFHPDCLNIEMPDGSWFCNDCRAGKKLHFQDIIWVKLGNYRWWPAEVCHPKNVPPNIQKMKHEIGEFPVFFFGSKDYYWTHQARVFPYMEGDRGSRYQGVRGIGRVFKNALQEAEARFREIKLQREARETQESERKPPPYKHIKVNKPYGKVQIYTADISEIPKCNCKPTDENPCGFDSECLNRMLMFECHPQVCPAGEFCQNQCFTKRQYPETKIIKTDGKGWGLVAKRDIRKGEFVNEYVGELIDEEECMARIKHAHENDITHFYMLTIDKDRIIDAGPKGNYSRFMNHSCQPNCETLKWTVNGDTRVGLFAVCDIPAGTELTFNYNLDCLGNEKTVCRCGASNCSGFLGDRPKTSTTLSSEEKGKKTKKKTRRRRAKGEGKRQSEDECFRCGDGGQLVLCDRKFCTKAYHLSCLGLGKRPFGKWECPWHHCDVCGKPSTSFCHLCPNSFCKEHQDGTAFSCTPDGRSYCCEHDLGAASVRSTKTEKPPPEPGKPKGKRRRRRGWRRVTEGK
It is filed as biochemical.

Assay [20] in a line: Luminescence Cell-Based Dose Retest to Confirm Inhibitors of Cancer Stem Cells. [Related pubchem assays (depositor defined):AID2717, AID2721]. Format: functional. The settings on record: Homo sapiens.
In assay [21] the target is Heat shock protein HSP 90-alpha (Homo sapiens, UniProt P07900). Format: functional, organism-based.
The subject of another assay is INS1. Briefly: beta cell apoptosis inhibitors, cytokine rescue, dose response, luminescence, retest (AID 449756).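 Also: cell death triggered by IL-1 beta plus TNF-alpha plus IFN-gamma mixture; protective hits raise ATP signal compared with cytokine alone wells.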 The settings on record: Rattus norvegicus. Format: functional, cell-based.
Assay [22] is described as follows: T. cruzi growth inhibition in host cells, dose response, cell-based, plate reader, dry powder, set 2 (AID 652275). It is filed as functional.

The source made the active and inactive calls.

Broadly, the IC50 is the concentration that gives 50% inhibition. A word on the EC50: it is the concentration needed to bring the measured effect to its halfway point. By AC50 is commonly meant the midpoint of the concentration-response curve, whichever way the signal moves.

T1 sequence (Q79MP6 whole entry): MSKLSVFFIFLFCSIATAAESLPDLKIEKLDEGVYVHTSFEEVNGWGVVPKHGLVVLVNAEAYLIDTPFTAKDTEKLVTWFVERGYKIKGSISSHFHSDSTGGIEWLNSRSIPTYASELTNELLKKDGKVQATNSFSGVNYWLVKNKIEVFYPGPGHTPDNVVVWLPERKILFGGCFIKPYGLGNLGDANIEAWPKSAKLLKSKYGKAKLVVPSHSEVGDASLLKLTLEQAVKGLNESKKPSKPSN
T3 sequence (P49327 whole entry, the tested form may be a part): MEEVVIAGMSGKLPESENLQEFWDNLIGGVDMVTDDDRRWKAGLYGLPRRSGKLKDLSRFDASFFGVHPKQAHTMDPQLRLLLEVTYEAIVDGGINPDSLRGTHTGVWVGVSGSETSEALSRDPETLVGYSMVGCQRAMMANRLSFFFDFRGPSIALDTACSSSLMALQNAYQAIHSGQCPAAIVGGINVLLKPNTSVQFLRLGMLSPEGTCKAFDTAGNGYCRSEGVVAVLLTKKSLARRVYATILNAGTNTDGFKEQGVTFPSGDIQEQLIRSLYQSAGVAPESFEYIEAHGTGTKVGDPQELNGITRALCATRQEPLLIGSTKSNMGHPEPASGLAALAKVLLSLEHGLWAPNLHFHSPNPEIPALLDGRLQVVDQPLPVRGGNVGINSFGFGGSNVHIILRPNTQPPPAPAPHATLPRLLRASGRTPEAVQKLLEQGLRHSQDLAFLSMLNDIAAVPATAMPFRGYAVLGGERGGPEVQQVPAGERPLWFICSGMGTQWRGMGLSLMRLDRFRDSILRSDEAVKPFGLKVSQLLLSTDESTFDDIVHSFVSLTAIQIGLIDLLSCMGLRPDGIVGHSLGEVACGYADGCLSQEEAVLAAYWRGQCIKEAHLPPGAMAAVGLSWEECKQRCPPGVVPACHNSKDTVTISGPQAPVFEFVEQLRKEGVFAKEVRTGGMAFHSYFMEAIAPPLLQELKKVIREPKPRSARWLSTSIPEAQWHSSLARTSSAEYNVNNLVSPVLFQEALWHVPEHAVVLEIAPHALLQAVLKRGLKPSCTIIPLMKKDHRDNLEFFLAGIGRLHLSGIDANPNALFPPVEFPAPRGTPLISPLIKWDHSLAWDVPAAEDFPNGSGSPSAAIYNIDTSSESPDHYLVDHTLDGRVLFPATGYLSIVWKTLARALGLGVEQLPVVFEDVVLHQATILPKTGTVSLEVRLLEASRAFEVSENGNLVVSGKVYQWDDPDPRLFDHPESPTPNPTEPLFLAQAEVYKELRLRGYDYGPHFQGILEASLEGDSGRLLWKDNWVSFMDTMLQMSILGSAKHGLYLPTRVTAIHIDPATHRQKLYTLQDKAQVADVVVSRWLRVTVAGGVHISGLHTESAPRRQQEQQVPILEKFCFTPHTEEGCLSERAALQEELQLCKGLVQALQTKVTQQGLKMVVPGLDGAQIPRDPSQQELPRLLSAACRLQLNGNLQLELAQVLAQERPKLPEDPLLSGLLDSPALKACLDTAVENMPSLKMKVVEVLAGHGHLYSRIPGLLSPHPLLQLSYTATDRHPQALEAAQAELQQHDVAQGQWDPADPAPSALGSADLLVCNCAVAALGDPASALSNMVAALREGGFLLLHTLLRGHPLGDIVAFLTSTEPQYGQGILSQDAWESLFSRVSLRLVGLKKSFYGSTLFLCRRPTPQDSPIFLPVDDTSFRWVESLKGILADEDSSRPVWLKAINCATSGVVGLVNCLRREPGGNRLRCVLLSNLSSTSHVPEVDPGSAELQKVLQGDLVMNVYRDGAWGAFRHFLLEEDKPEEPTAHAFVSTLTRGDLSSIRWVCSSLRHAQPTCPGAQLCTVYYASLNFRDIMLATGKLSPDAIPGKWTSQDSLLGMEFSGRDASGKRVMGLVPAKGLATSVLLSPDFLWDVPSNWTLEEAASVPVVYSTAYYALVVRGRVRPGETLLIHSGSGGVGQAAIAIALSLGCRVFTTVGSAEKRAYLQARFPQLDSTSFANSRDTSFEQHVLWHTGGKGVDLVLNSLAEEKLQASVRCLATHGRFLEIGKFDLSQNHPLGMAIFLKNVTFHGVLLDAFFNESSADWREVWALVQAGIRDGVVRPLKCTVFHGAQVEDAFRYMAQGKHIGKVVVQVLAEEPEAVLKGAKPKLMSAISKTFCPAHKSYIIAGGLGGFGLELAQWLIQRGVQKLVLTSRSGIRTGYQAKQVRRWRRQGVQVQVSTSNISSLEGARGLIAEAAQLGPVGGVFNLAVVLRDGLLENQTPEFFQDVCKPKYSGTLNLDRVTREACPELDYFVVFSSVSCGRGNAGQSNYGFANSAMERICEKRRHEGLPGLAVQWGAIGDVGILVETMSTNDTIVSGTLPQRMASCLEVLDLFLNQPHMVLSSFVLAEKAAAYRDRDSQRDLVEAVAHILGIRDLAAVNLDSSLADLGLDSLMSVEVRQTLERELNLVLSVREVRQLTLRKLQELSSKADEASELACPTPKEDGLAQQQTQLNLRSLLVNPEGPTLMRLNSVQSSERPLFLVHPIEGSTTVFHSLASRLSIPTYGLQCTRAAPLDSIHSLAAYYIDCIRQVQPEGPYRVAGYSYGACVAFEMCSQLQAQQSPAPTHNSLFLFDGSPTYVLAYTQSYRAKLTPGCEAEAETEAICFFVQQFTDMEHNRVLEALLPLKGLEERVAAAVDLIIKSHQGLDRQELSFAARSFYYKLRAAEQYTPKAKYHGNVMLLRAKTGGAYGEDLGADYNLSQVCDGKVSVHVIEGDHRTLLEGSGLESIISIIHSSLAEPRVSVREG
Albumin, sequence (P02769 whole entry, the tested form may be a part): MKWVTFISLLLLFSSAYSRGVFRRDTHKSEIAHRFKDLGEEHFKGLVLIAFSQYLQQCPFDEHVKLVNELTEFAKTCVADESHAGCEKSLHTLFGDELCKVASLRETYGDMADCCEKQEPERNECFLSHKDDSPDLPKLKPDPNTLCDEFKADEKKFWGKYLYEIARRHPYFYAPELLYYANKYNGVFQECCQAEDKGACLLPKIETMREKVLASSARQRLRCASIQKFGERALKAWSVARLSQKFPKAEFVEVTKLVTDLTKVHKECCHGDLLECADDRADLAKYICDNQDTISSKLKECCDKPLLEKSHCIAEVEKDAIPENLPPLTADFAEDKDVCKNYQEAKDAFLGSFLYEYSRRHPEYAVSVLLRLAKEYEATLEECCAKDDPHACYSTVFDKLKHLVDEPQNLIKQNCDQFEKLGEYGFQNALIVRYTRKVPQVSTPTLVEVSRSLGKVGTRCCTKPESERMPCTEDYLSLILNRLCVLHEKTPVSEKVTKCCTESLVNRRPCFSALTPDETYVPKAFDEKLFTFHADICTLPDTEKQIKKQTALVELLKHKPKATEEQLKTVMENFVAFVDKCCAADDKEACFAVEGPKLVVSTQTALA
Protein Wnt-3a, sequence (P27467 whole entry): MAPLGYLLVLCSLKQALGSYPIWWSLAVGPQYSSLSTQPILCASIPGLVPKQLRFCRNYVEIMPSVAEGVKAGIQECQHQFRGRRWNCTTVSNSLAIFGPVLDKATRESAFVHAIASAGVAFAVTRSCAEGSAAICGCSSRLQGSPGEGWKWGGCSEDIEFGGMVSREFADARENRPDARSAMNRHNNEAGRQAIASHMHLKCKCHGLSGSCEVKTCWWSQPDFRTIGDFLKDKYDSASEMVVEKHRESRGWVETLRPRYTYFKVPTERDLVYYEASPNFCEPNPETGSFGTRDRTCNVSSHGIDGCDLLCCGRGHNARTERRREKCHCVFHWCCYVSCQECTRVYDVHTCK
Beta-lactamase (Salmonella choleraesuis (strain SC-B67), UniProt Q5J463), sequence (Q5J463 whole entry): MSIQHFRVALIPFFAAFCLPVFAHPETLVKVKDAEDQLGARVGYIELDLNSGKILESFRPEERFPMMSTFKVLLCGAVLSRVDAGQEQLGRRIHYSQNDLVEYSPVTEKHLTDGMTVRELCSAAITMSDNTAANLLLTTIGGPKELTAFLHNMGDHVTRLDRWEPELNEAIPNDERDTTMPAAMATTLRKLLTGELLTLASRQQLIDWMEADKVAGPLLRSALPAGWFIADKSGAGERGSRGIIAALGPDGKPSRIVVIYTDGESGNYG
Luciferin 4-monooxygenase, sequence (P08659 whole entry): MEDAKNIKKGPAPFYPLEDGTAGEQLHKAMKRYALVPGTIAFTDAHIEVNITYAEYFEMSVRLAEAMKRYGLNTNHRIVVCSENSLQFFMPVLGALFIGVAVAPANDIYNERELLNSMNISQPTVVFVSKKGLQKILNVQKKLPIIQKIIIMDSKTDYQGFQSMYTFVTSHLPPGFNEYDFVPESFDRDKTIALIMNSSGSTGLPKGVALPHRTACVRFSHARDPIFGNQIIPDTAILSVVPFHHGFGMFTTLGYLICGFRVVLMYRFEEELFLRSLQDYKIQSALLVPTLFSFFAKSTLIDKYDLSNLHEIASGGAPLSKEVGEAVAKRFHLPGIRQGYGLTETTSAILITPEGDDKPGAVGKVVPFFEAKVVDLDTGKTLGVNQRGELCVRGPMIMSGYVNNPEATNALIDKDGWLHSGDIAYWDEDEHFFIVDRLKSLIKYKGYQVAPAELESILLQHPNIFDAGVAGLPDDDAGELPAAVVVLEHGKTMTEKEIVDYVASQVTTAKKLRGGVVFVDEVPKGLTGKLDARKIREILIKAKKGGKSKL
Cytochrome P450 3A4, sequence (P08684 whole entry): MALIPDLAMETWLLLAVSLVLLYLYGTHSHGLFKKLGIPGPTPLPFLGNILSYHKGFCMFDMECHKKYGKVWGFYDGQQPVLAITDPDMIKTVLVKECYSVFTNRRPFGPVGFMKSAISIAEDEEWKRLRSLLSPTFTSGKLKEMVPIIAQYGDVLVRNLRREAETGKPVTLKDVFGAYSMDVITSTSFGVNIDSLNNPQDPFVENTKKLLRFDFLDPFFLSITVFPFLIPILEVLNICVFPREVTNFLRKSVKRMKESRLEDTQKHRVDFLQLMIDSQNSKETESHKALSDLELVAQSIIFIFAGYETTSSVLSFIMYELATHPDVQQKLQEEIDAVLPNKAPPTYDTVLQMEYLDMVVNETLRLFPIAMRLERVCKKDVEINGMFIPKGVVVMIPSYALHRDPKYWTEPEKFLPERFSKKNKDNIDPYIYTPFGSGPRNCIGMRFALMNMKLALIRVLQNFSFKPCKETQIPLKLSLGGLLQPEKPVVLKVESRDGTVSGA

With `CN1CCN(c2cc(NC(=O)c3ccccc3)ncn2)CC1`, the IC50 on Protein Wnt-3a was > 21.8 µM (inactive).

For `Cc1ccc2nc(-c3cc(N)cc(N)c3)oc2c1`, the EC50 in assay [1] is 1.01 µM (active); with HT-1080, > 50 µM (not active). The IC50 in assay [2] is > 122 µM (inactive).

Regarding `C[C@@H]1CCCCO[C@H](CN(C)Cc2ccc3c(c2)OCO3)[C@@H](C)CN([C@@H](C)CO)C(=O)c2cc(NC(=O)Nc3ccc(C(F)(F)F)cc3)ccc2O1`, the AC50 at Paired box protein Pax-8 was 17.3 µM (active); in assay [3], 11.3 µM (active); in assay [4], 41.9 µM (active); in assay [5] it was 19.6 µM (active).

For `CCCc1cc(=O)oc2c3c(cc(OCC(=O)N[C@@H](C)C(=O)O)c12)OC(C)(C)CC3`, the IC50 at Beta-lactamase [6], on Beta-lactamase [7] and at Beta-lactamase [8] was > 59.6 µM (inactive) each time. Moreover, the EC50 in assay [9] was > 260 µM (inactive).

For the compound `COc1cc(Br)cc2cc(C(=O)N3CCN(C(=O)c4ccco4)CC3)c(=O)oc12`, the IC50 on Albumin was > 94.1 µM (inactive).

For `COc1ccc(/C=N\NC(=O)CNC(=O)C(c2ccccc2)c2ccccc2)cc1[N+](=O)[O-]`, the concentration for half-maximal inhibition (IC50) is 16.6 µM (active) at Fatty acid synthase [10] and 12.3 µM (active) at Fatty acid synthase [11].

`O=C(Nc1cc(N2CCCCC2)ncn1)c1ccccc1`: the IC50 at Protein Wnt-3a was > 21.8 µM (inactive).

As to `C[C@@H]1CN([C@@H](C)CO)C(=O)CCCn2nncc2CO[C@H]1CN(C)S(=O)(=O)c1ccc(Cl)cc1`, in [4], the AC50 was < 1 µM (active).

Take `CCCCCCN[C@H]1CCC2C3CC=C4C[C@@H](O)CC[C@]4(C)C3CC[C@@]21C` (stereo partly specified): the EC50 in assay [12] and in [13] was > 91.2 µM (inactive) in each case.

For the compound `O=S1(=O)CCN(c2ccccc2CC(c2c[nH]c3ccccc23)c2c[nH]c3ccccc23)CC1`, the half-maximal activity concentration (AC50) in assay [14] is < 0.26 µM (active); in assay [15] it was 24.6 µM (active); in [16], < 0.26 µM (active); in [17] it was 0.555 µM (active); in assay [18] it was 1.06 µM (active); at Cytochrome P450 3A4, 2.51 µM (inconclusive).

Consider `O=C(CSc1nnc(NC(=O)c2ccccc2F)s1)NCc1ccc(F)cc1`, for which the IC50 at Beta-lactamase [6], on Beta-lactamase [7] and at Beta-lactamase [8] was > 59.6 µM (inactive) each time.

In the case of `NC(CCc1ccccc1)c1csc(Nc2ccccn2)n1` (stereo unspecified), the half-maximal activity concentration (AC50) in [14] is 6.61 µM (active); in assay [15] it was 38.1 µM (active); in assay [16], 7.52 µM (active); in assay [17], 3.22 µM (active); in [18], 22.6 µM (active).

`Cc1c(CC(=O)N2CCN(C(=O)C3COc4ccccc4O3)CC2)c(=O)oc2c(O)c(O)ccc12` (stereo unspecified): the results for the IC50 on Large T antigen and on Albumin were 2.43 µM (active) and > 94.1 µM (inactive), respectively. The AC50 in [19] was 3.53 µM (active).

As for `O=C(/C=C/c1ccccc1)NC(=S)NNC(=O)c1cnccn1`, the values for the half-maximal activity concentration (AC50) (in assay [20]; in assay [21]; with INS1) were 8.78 µM (active), 2.87 µM (active) and 1.39 µM (active), respectively. Further, the IC50 in assay [2] is 66.8 µM (inactive).

`O=C(Cc1ccccn1)N1CCCCN2[C@@H](CO)[C@H](c3ccc(Br)cc3)[C@@H]2C1`: the AC50 in assay [22] was 2.31 µM (active).

These data come from ChEMBL document CHEMBL1201862, “PubChem BioAssay data set” (2004).
